In patent US11135320B2, “Radioligands for pretargeted pet imaging and methods of their therapeutic use” (priority 2015, dated 2021):
Several values for one entry are separate records, joined by “and”; a condition that tells them apart may be missing. Equal entries are not always repeated.

Legend:
[1] = Stability of ^64Cu-labeled tetrazines in PBS (pH 7.4) at 37° C.; assay type: physicochemical; settings: PBS pH 7.4, 37° C.
Procedure: (§1) Next, the aqueous and serum stabilities were determined via incubation at 37° C. (Tables 2-3). […] For example, after a 4 h incubation, 77.8±3.5% and 81.2±3.7% of ^64Cu-Tz-PEG7-NOTA and ^64Cu-Tz-SarAr, respectively, remained intact. Importantly, the release of ^64Cu^2+ from the chelators was not observed in any of the trials. Despite the rates of decomposition, the speed of the IEDDA reaction was faster than short blood half-lives of these small molecules; therefore, the radioligands remained functional in vivo.
(§2) ^64Cu-Tz-PEG7-NOTA and ^64Cu-Tz-SarAr (1000 μCi) were incubated on an agitating thermomixer (300 rpm) at 37° C. in 500 μL of either PBS (pH 7.4) or human serum. At each prescribed time-point, 100 μL of the solution was removed and placed into a 1.7 mL microcentrifuge tube. For the PBS samples, the compound was injected directly onto the HPLC and analyzed using a gradient of 5:95 CH3CN:H2O (both with 0.1% TFA) to 95:5 CH3CN:H2O over 15 min. For the serum samples, 100 μL cold CH3CN was added to the serum, and the resultant mixture was vortexed and centrifuged at 10,000 rpm for 10 min. After this, the clear supernatant was removed, moved to a new 1.7 mL microcentrifuge tube, and centrifuged again at 10,000 rpm for 10 min. The clear supernatant from this second spin was then injected into the HPLC and analyzed using a gradient of 5:95 CH3CN:H2O (both with 0.1% TFA) to 95:5 CH3CN:H2O over 15 min. The residual protein from the centrifuge spins was checked for radioactivity, and only minimal residual activity remained (less than 1% of the starting ^64Cu for each ^64Cu-Tz-PEG7-NOTA and ^64Cu-Tz-SarAr). The fraction of intact ^64Cu-Tz-PEG7-NOTA or ^64Cu-Tz-SarAr was determined by integrating the peak corresponding to the compound (tR=9.7 and 8.7 minutes, respectively) and dividing by the integral over the whole HPLC run. Both the injection loop and column were monitored to detect the presence of residual activity. All experiments were performed in triplicate.

[2] = Stability of ^64Cu-labeled tetrazines in human serum at 37° C.; assay type: in vitro ADME
Procedure: as §1, §2

[3] = Acute biodistribution of ^64Cu-labeled tetrazine radioligands in healthy mice; assay type: in vivo, athymic nude mice; settings: for Large Intestine activity concentration / Small Intestine activity concentration / Stomach activity concentration: contents not removed
Procedure: (§3) Mice were administered ^64Cu-Tz-NOTA (25-30 μCi in 200 μL 0.9% sterile saline) via intravenous tail vein injection. Animals (n=4 per group) were euthanized by CO2(g) asphyxiation at 1, 4, and 24 h after injection. After asphyxiation, tissues were removed, rinsed in water, dried in air for 5 min, weighed, and counted in a gamma counter calibrated for ^64Cu. Counts were converted into activity using a calibration curve generated from known standards. Count data were background- and decay-corrected to the time of injection, and the percent injected dose per gram (% ID/g) for each tissue sample was calculated by normalization to the total activity injected. Contents within the stomach, small intestine, and large intestine were not removed for the measurements.
as §3, with “^64Cu-Tz-PEG7-NOTA” for “^64Cu-Tz-NOTA”
as §3, with “^64Cu-Tz-SarAr” for “^64Cu-Tz-NOTA”
as §3, with “Healthy female athymic nude mice (n=4 per radioligand) were” for “Mice were”, “administered ^64Cu-Tz-PEG7-NOTA or ^64Cu-Tz-SarAr” for “administered ^64Cu-Tz-NOTA”, “vein injection (t=0).” for “vein injection.”, “4, 12,” for “4,”, “injected.” for “injected. Contents within the stomach, small intestine, and large intestine were not removed for the measurements.”

SMILES	% Intact (PBS) ([1]; 2 h)	% Intact (Serum) ([2]; 2 h)	Blood activity concentration ([3]; 1 h p.i.)	Bone activity concentration ([3]; 1 h p.i.)	Heart activity concentration ([3]; 1 h p.i.)	Kidney activity concentration ([3]; 1 h p.i.)	Liver activity concentration ([3]; 1 h p.i.)	Lung activity concentration ([3]; 1 h p.i.)	Muscle activity concentration ([3]; 1 h p.i.)	Spleen activity concentration ([3]; 1 h p.i.)	Large Intestine activity concentration ([3]; 1 h p.i.)	Small Intestine activity concentration ([3]; 1 h p.i.)	Stomach activity concentration ([3]; 1 h p.i.)	Blood activity concentration ([3]; 4 h p.i.)	Bone activity concentration ([3]; 4 h p.i.)	Heart activity concentration ([3]; 4 h p.i.)	Kidney activity concentration ([3]; 4 h p.i.)	Liver activity concentration ([3]; 4 h p.i.)	Lung activity concentration ([3]; 4 h p.i.)	Muscle activity concentration ([3]; 4 h p.i.)	other results
O=C([O-])CN1CCN(CC(=O)[O-])CC(Cc2ccc(NC(=O)CCCC(=O)NCc3ccc(-c4nncnn4)cc3)cc2)N(CC(=O)[O-])CC1.[64Cu+2] (centres unmarked) [^64Cu-Tz-NOTA]	91.6 +/− 1.9%	85.4 +/− 6.6%	0.23 ± 0.01 % ID/g	0.10 ± 0.03 % ID/g	0.10 ± 0.02 % ID/g	0.53 ± 0.09 % ID/g	1.45 ± 0.39 % ID/g	0.38 ± 0.06 % ID/g	0.04 ± 0.02 % ID/g	0.15 ± 0.05 % ID/g	11.58 ± 2.19 % ID/g	3.14 ± 1.47 % ID/g	0.12 ± 0.04 % ID/g	0.13 ± 0.01 % ID/g	0.07 ± 0.04 % ID/g	0.11 ± 0.02 % ID/g	0.33 ± 0.07 % ID/g	0.42 ± 0.13 % ID/g	0.27 ± 0.08 % ID/g	0.03 ± 0.02 % ID/g	Spleen activity concentration ([3]; 4 h p.i.): 0.09 ± 0.02 % ID/g; Large Intestine activity concentration ([3]; 4 h p.i.): 10.0±1.3 % ID/g and 10.03 ± 1.33 % ID/g; Small Intestine activity concentration ([3]; 4 h p.i.): 0.17 ± 0.07 % ID/g; Stomach activity concentration ([3]; 4 h p.i.): 0.05 ± 0.03 % ID/g; Blood activity concentration ([3]; 24 h p.i.): 0.07 ± 0.01 % ID/g; Bone activity concentration ([3]; 24 h p.i.): 0.03 ± 0.01 % ID/g; Heart activity concentration ([3]; 24 h p.i.): 0.09 ± 0.01 % ID/g; Kidney activity concentration ([3]; 24 h p.i.): 0.22 ± 0.07 % ID/g; Liver activity concentration ([3]; 24 h p.i.): 0.21 ± 0.06 % ID/g; Lung activity concentration ([3]; 24 h p.i.): 0.21 ± 0.02 % ID/g; Muscle activity concentration ([3]; 24 h p.i.): 0.03 ± 0.03 % ID/g; Spleen activity concentration ([3]; 24 h p.i.): 0.08 ± 0.02 % ID/g; Large Intestine activity concentration ([3]; 24 h p.i.): 1.4±0.7 % ID/g and 1.37 ± 0.65 % ID/g; Small Intestine activity concentration ([3]; 24 h p.i.): 0.10 ± 0.02 % ID/g; Stomach activity concentration ([3]; 24 h p.i.): 0.18 ± 0.11 % ID/g
O=C(O)CN1CCN(CC(=O)O)CC(Cc2ccc(NC(=S)NCCOCCOCCOCCOCCOCCOCCOCCNC(=O)CCCC(=O)NCc3ccc(-c4nncnn4)cc3)cc2)N(CC(=O)O)CC1.[64Cu] (centres unmarked) [^64Cu-Tz-PEG7-NOTA]	87.0±1.3% and 87.0 +/− 1.3%	84.7 +/− 4.8% and 84.7 ± 4.8%	0.38 ± 0.14 % ID/g	0.09 ± 0.06 % ID/g	0.17 ± 0.02 % ID/g	1.5±0.2 % ID/g and 1.51 ± 0.24 % ID/g	0.77 ± 0.11 % ID/g	0.49 ± 0.11 % ID/g	0.05 ± 0.01 % ID/g	0.19 ± 0.01 % ID/g	6.35 ± 0.69 % ID/g	0.5 ± 0.26 % ID/g	0.18 ± 0.06 % ID/g	0.26 ± 0.14 % ID/g	0.07 ± 0.02 % ID/g	0.18 ± 0.03 % ID/g	1.2±0.4 % ID/g and 1.23 ± 0.39 % ID/g	0.63 ± 0.2 % ID/g	0.35 ± 0.13 % ID/g	0.03 ± 0.02 % ID/g	% Intact (PBS) ([1]; 4 h): 83.2±4.6%; % Intact (PBS) ([1]; 8 h): 76.2 ± 2.6%; % Intact (Serum) ([2]; 4 h): 77.8±3.5%; % Intact (Serum) ([2]; 8 h): 64.0 ± 6.5%; Spleen activity concentration ([3]; 4 h p.i.): 0.14 ± 0.02 % ID/g; Large Intestine activity concentration ([3]; 4 h p.i.): 4.9±0.7 % ID/g and 4.91 ± 0.71 % ID/g; Small Intestine activity concentration ([3]; 4 h p.i.): 0.3 ± 0.14 % ID/g; Stomach activity concentration ([3]; 4 h p.i.): 0.36 ± 0.25 % ID/g; Blood activity concentration ([3]; 24 h p.i.): 0.08 ± 0.01 % ID/g; Bone activity concentration ([3]; 24 h p.i.): 0.06 ± 0.01 % ID/g; Heart activity concentration ([3]; 24 h p.i.): 0.09 ± 0.01 % ID/g; Kidney activity concentration ([3]; 24 h p.i.): 0.86 ± 0.11 % ID/g; Liver activity concentration ([3]; 24 h p.i.): 0.32 ± 0.11 % ID/g; Lung activity concentration ([3]; 24 h p.i.): 0.17 ± 0.03 % ID/g; Muscle activity concentration ([3]; 24 h p.i.): 0.02 ± 0.01 % ID/g; Spleen activity concentration ([3]; 24 h p.i.): 0.12 ± 0.01 % ID/g; Large Intestine activity concentration ([3]; 24 h p.i.): 0.40 ± 0.15 % ID/g; Small Intestine activity concentration ([3]; 24 h p.i.): 0.10 ± 0.01 % ID/g; Stomach activity concentration ([3]; 24 h p.i.): 0.09 ± 0.02 % ID/g
NC12CNCCNCC(NCc3ccc(CNC(=O)CCCC(=O)NCc4ccc(-c5nncnn5)cc4)cc3)(CNCCNC1)CNCCNC2.[64Cu+2] [^64Cu-Tz-SarAr]	94.7±0.6% and 94.7 +/− 0.6%	92.0 +/− 2.1% and 92.0 ± 2.1%	0.42 ± 0.11 % ID/g	0.12 ± 0.03 % ID/g	0.22 ± 0.06 % ID/g	2.3±0.4 % ID/g and 2.34 ± 0.35 % ID/g	0.72 ± 0.03 % ID/g	0.32 ± 0.06 % ID/g	0.05 ± 0.03 % ID/g	0.38 ± 0.06 % ID/g	0.07±0.01 % ID/g	0.29 ± 0.21 % ID/g	0.24 ± 0.14 % ID/g	0.15 ± 0.01 % ID/g	0.09 ± 0.01 % ID/g	0.12 ± 0.02 % ID/g	1.57 ± 0.19 % ID/g	0.42 ± 0.24 % ID/g	0.31 ± 0.09 % ID/g	0.04 ± 0.01 % ID/g	% Intact (PBS) ([1]; 4 h): 93.3±0.5%; % Intact (PBS) ([1]; 8 h): 89.7 ± 2.3%; % Intact (Serum) ([2]; 4 h): 81.2±3.7%; % Intact (Serum) ([2]; 8 h): 67.7 ± 4.3%; Spleen activity concentration ([3]; 4 h p.i.): 0.2 ± 0.05 % ID/g; Large Intestine activity concentration ([3]; 4 h p.i.): 0.08 ± 0.03 % ID/g; Small Intestine activity concentration ([3]; 4 h p.i.): 0.16 ± 0.03 % ID/g; Stomach activity concentration ([3]; 4 h p.i.): 0.2 ± 0.1 % ID/g; Blood activity concentration ([3]; 24 h p.i.): 0.06 ± 0.01 % ID/g; Bone activity concentration ([3]; 24 h p.i.): 0.08 ± 0.02 % ID/g; Heart activity concentration ([3]; 24 h p.i.): 0.08 ± 0.02 % ID/g; Kidney activity concentration ([3]; 24 h p.i.): 1.26 ± 0.41 % ID/g; Liver activity concentration ([3]; 24 h p.i.): 0.28 ± 0.07 % ID/g; Lung activity concentration ([3]; 24 h p.i.): 0.24 ± 0.06 % ID/g; Muscle activity concentration ([3]; 24 h p.i.): 0.03 ± 0.01 % ID/g; Spleen activity concentration ([3]; 24 h p.i.): 0.21 ± 0.04 % ID/g; Large Intestine activity concentration ([3]; 24 h p.i.): 0.07 ± 0.01 % ID/g; Small Intestine activity concentration ([3]; 24 h p.i.): 0.07 ± 0.01 % ID/g; Stomach activity concentration ([3]; 24 h p.i.): 0.05 ± 0.01 % ID/g
